In assay [1] the target is T1, hIDO1 (Homo sapiens, UniProt P14902).
T1 construct: expressed in transfected cells; host or cells: HEK293T (293T) cells, transient transfection with Fugene 6
Briefly: IDO inhibition activity based on HEK293T cells transfected with hIDO1 plasmid. In kind it is cell-based. The following applies: HEK293T cells transfected with hIDO1, 16 hours incubation, OD 480 nm; read-out: IDO inhibitory activity of HEK293T cells (IC50). The protocol: 1. Test Method for IDO Inhibition Activity Based on HEK293T Cells:
The first step: cell transfection and plating. 5×10^6 293T cells were separately seeded in two T75 flasks and incubated overnight at 37° C. in a 5% CO2 incubator. […] of a mixture containing 1.5 μg of hIDO1 plasmid and 300 μL of opti-MEM was made into a mixture A; 18 μL of liposome fugene 6 was mixed with 300 μL of opti-MEM to prepare a mixture B, and allowed to stand at room temperature for 5 minutes. Mixture A and Mix B were mixed, placed at room temperature for 20 minutes, added to a 293T culture flask, and the other flask was used as a control and incubated overnight at 37° C. in a 5% CO2 incubator. The medium was discarded, digested with trypsin, and after digestion, the cells were neutralized with serum-containing medium, and the cells were blown to cause the cells to fall off. Pipette the cell suspension into a centrifuge tube and centrifuge at a speed of 800-1000 for 1-3 minutes. Aspirate the cell supernatant from the centrifuge tube. Add an appropriate volume of medium to the tube and gently blister to resuspend the cells. Count using a Vi-Cell XR cytometer. Adjust the cell suspension to the appropriate concentration. The cell suspension was added to a white-well 96-well plate at 80 μL/well. The second step: preparation and addition of the compound. Compounds were formulated in DMSO at 600 μM and the compounds were diluted in DMSO according to a multiple of the following table to give 6 concentration gradients of the compound. The 200× compound prepared in DMSO was formulated into a 10× dilution solution in proportion to the corresponding cell culture medium. Add 10 μL of 10× corresponding compound dilution and 10 μL of 10×TRP to each well, except for Min. Incubate for 16 hours in a 37° C. incubator. The third step: detection and analysis. Cell morphology was observed under an inverted microscope. 80 μL of the supernatant was added to a 3894 plate, and 10 μL of 6.1 N trichloroacetic acid was added to each well, shaken for 2 minutes, and placed in a 50-degree incubator for 30 minutes. Centrifuged at 2500 rpm for 10 minutes. Take 70 μL of the supernatant and transfer to a 3635 UV plate, add 70 μL of the reaction solution, and shake for 2 minutes to make the reaction uniform. Use EnSpire (PE) to detect data with an OD of 480 nm. The cell culture plate 3903 was allowed to stand at room temperature for 30 minutes. 100 μL/well of the cell activity detecting reagent was added to the culture plate. Mix on a shaker for 2 minutes to induce cell lysis. The 96-well plate was allowed to stand at room temperature for 10 minutes to stabilize the luminescence signal. Paste the white base film on the bottom of the plate and the plate was tested in Flexstation 3 (the relevant setting is: Illumination, integration time 500 ms). Record the experimental results obtained from the analysis.
The IC50 value is expressed by: A: IC50 value≤10 nM; B: 10 nM<IC50 value≤50 nM; C: 50 nM<IC50 value≤100 nM; D: IC50 value>100 nM.

The target of assay [2] is T2, IDO (Homo sapiens, UniProt P14902).
T2 construct: endogenous in cells; host or cells: HeLa cells treated with IFNγ
T2 sequence (P14902 whole entry): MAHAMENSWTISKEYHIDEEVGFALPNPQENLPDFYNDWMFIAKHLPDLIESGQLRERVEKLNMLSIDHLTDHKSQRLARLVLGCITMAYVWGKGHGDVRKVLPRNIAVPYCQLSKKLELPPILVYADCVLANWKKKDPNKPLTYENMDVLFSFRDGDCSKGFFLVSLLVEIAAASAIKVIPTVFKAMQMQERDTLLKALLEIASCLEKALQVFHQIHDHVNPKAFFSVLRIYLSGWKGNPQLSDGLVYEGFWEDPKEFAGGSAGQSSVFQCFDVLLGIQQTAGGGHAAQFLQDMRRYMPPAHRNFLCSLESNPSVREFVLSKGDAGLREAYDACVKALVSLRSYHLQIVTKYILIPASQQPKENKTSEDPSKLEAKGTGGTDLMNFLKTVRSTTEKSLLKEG
Briefly: Hela cell-based IDO inhibitory activity test (IFNγ added). The following applies: Hela cells with IFNγ, 48 hours incubation, OD 480 nm. The protocol:
2. Hela Cell-Based IDO Inhibitory Activity Test Method
The first step: cell plating. Prepare complete medium and mix well. Cell lines that are in good growth state are selected. Remove the cell culture flask from the incubator and check the cell name, media type and cell generation number on the bottle. The medium was discarded, digested with trypsin, and after digestion, the cells were neutralized with serum-containing medium, and the cells were blown to cause the cells to fall off. Pipette the cell suspension into a centrifuge tube and centrifuge at a speed of 800-1000 for 3-5 minutes. Aspirate the cell supernatant from the centrifuge tube. Add an appropriate volume of medium to the tube and gently blister to resuspend the cells. Count using a Vi-Cell XR cytometer. Adjust the cell suspension to the appropriate concentration. The cell suspension was added to a white-well 96-well plate at 80 μl/well according to the schematic below. The second step: preparation and addition of the compound. Compounds were formulated in DMSO at 600 μM and the compounds were diluted in DMSO according to a multiple of the following table to give 6 concentration gradients of the compound. The 200× compound prepared in DMSO was formulated into a 10× dilution solution in proportion to the corresponding cell culture medium. After 24 hours of cell seeding, 10 μL of 10× corresponding compound dilution and 10 μL of 10×IFNγ were added to each well. Incubate for 48 hours in a 37° C. incubator. The third step: detection and analysis. Cell morphology was observed under an inverted microscope. 80 μL of the supernatant was added to a 3894 plate, 10 μL of 6.1 N trichloroacetic acid was added to each well, shaken for 2 minutes, and placed in a 50-degree incubator for 30 minutes. Centrifuge, 2500 rpm for 10 minutes.
Take 70 μL of the supernatant and transfer to a 3635 UV plate, add 70 μL of the reaction solution, and shake for 2 minutes to make the reaction uniform. Use EnSpire (PE) to detect data with an OD of 480 nm. The cell culture plate 3903 was allowed to stand at room temperature for 30 minutes. 100 μL/well of the cell activity detecting reagent was added to the culture plate. Mix on a shaker for 2 minutes to induce cell lysis. The 96-well plate was allowed to stand at room temperature for 10 minutes to stabilize the luminescence signal. Paste the white base film on the bottom of the plate and tested with Flexstation3 plate (the relevant setting is: Illumination, integration time 500 ms). Record the experimental results obtained from the analysis.
The IC50 value is expressed in the following manner: […]

T1 sequence (P14902 whole entry): as above

On to `CC(C(=O)Nc1ccc(Cl)cc1)[C@H]1C[C@H]2C[C@@H](c3ccnc4ccc(F)cc34)C[C@H]2C1` (mixture of isomers) [Compound 1], for which the figures for the IC50 in assay [1] and in assay [2] were no more than 10 nM and no more than 5 nM, respectively.

In the case of `CC(C(=O)Nc1ccc(Cl)cn1)[C@H]1C[C@H]2CC(c3ccnc4ccc(F)cc34)C[C@H]2C1` (mixture of isomers) [Compound 26], the concentration for half-maximal inhibition (IC50) (as a rule, the concentration that gives 50% inhibition) is 10 to 50 nM in assay [1] and no more than 5 nM in assay [2].

As for `O=C(CC1=C[C@H]2C[C@@H](c3ccnc4ccc(F)cc34)C[C@H]2C1)Nc1ccc(Cl)cc1` (racemic) [Compound 57], the concentration for half-maximal inhibition (IC50) in assay [1] is 10 to 50 nM; in assay [2], no more than 5 nM.

Turning to `C[C@@H](C(=O)Nc1ccc(Cl)cc1)[C@H]1C[C@H]2C[C@@H](c3ccnc4ccc(F)cc34)C[C@H]2C1` (single isomer, unassigned) [Compound 1A], the results for the IC50 in assay [1] and in assay [2] were no more than 10 nM and no more than 5 nM, respectively.

Regarding `C[C@H](C(=O)Nc1ccc(Cl)cc1)[C@H]1C[C@H]2C[C@@H](c3ccnc4ccc(F)cc34)C[C@H]2C1` (single isomer, unassigned) [Compound 1B], the IC50 was no more than 10 nM in assay [1] and no more than 5 nM in assay [2].

For the compound `O=C(C[C@@H]1C[C@@H]2C[C@H](c3ccnc4ccc(F)cc34)C[C@@H]2C1)Nc1ccc(Cl)cc1` [Compound 2], the figures for the 50% inhibitory concentration (IC50) in assay [1] and in assay [2] were 10 to 50 nM and 5 to 25 nM, respectively.

On to `CC(C(=O)Nc1ccc(Cl)cc1)[C@@H]1C[C@H]2C[C@@H](c3ccnc4ccc(F)cc34)C[C@H]2C1` (stereo partly shown) [Compound 4], for which the values for the IC50 in assay [1] and in assay [2] were 10 to 50 nM and no more than 5 nM, respectively.

On to `O=C(C[C@H]1C[C@@H]2C[C@H](c3ccnc4ccc(F)cc34)C[C@@H]2C1)Nc1ccc(Cl)cc1` [Compound 5], for which the IC50 was no more than 10 nM in assay [1] and no more than 5 nM in assay [2].

For `COc1ccc(NC(=O)C(C)[C@H]2C[C@H]3C[C@@H](c4ccnc5ccc(F)cc45)C[C@H]3C2)cn1` (stereo partly shown) [Compound 6], the IC50 in assay [1] was 10 to 50 nM; in assay [2], 5 to 25 nM.

Consider `CC(C(=O)Nc1cccc(Cl)c1)[C@H]1C[C@H]2C[C@@H](c3ccnc4ccc(F)cc34)C[C@H]2C1` (stereo partly shown) [Compound 7], for which the values for the half-inhibitory concentration (IC50) in assay [1] and in assay [2] were 10 to 50 nM and 5 to 25 nM, respectively.

In the case of `CC(C(=O)Nc1ccc(Cl)cc1)[C@@H]1C[C@@H]2CN(c3ccnc4ccc(F)cc34)C[C@@H]2C1` (stereo partly shown) [Compound 9], the concentration for half-maximal inhibition (IC50) in assay [1] and in assay [2] was greater than 100 nM each time.

Regarding `O=C(Cc1ccc(CC(C(=O)Nc2ccc(Cl)cc2)[C@H]2CC[C@@H](c3ccnc4ccc(F)cc43)CC2)cc1)NO` (stereo partly shown) [Compound 10], the IC50 in assay [1] and in assay [2] was greater than 100 nM throughout.

As for `O=C(C[C@@H]1C[C@@H]2CC(c3ccnc4ccc(F)cc34)=C[C@@H]2C1)Nc1ccc(Cl)cc1` [Compound 11], the IC50 was 10 to 50 nM in assay [1] and no more than 5 nM in assay [2].

With `O=C(C[C@@H]1C[C@@H]2C[C@H](c3ccnc4ccc(F)cc34)C[C@@H]2C1)NC1CCC(F)(F)CC1` [Compound 12], the 50% inhibitory concentration (IC50) in assay [1] was greater than 100 nM; in assay [2] it was 25 to 100 nM.

With `O=C(C[C@@H]1C[C@H]2CC(c3ccnc4ccc(F)cc34)C[C@H]2C1)Nc1ccc(Cl)nc1` (stereo partly shown) [Compound 22], the IC50 in assay [1] fell in the range of 10 to 50 nM; in assay [2] it was 5 to 25 nM.

`CC(C(=O)Nc1ccc(Cl)nc1)[C@H]1C[C@H]2C[C@@H](c3ccnc4ccc(F)cc34)C[C@H]2C1` (stereo partly shown) [Compound 27]: the half-maximal inhibitory concentration (IC50) in assay [1] was 10 to 50 nM; in assay [2], no more than 5 nM.

With `C#Cc1ccc(NC(=O)C(C)[C@H]2C[C@H]3C[C@@H](c4ccnc5ccc(F)cc45)C[C@H]3C2)cc1` (stereo partly shown) [Compound 34], the results for the IC50 in assay [1] and in assay [2] were no more than 10 nM and no more than 5 nM, respectively.

For the compound `CC(C(=O)Nc1ccc(Cl)cc1)C1=C[C@H]2C[C@@H](c3ccnc4ccc(F)cc34)C[C@H]2C1` (stereo partly shown) [Compound 38], the results for the concentration for half-maximal inhibition (IC50) in assay [1] and in assay [2] were no more than 10 nM and no more than 5 nM, respectively.

Turning to `CC(C(=O)Nc1ccc(Cl)cc1)[C@@H]1C[C@]2(C)C[C@H](c3ccnc4ccc(F)cc34)C[C@]2(C)C1` (stereo partly shown) [Compound 40], the IC50 in assay [1] is 10 to 50 nM; in assay [2], no more than 5 nM.

For `CC(C(=O)Nc1ccc(Cl)nc1)[C@@H]1C[C@]2(C)C[C@H](c3ccnc4ccc(F)cc34)C[C@]2(C)C1` (stereo partly shown) [Compound 42], the values for the 50% inhibitory concentration (IC50) in assay [1] and in assay [2] were 10 to 50 nM and no more than 5 nM, respectively.

Regarding `CC(C(=O)Nc1ccc(Cl)nc1)N1C[C@H]2C[C@@H](c3ccnc4ccc(F)cc34)C[C@H]2C1` (stereo partly shown) [Compound 45], the IC50 is 10 to 50 nM in assay [1] and 5 to 25 nM in assay [2].

Consider `O=C(C[C@@H]1C[C@@H]2C[C@@H](c3ccnc4ccc(F)cc34)C(O)[C@@H]2C1)Nc1ccc(Cl)cc1` (stereo partly shown) [Compound 50], for which the 50% inhibitory concentration (IC50) is 10 to 50 nM in assay [1] and 5 to 25 nM in assay [2].

Turning to `O=C(C[C@@H]1C[C@@H]2C[C@@H](Oc3ccnc4ccccc34)C[C@@H]2C1)Nc1ccc(Cl)cc1` [Compound 51], the IC50 in assay [1] and in assay [2] was greater than 100 nM in each case.

As to `C#Cc1ccc(NC(=O)C[C@@H]2C[C@@H]3C[C@H](c4ccnc5ccc(F)cc45)C[C@@H]3C2)nc1` [Compound 67], the IC50 in assay [1] is no more than 10 nM; in assay [2] it was no more than 5 nM.

Turning to `C/C(C(=O)Nc1ccc(Cl)cc1)=C1\C[C@@H]2C[C@H](c3ccnc4ccc(F)cc34)C[C@@H]2C1` [Compound 68], the concentration for half-maximal inhibition (IC50) in assay [1] was no more than 10 nM; in assay [2], no more than 5 nM.

As for `CC(C(=O)Nc1ccc(C#N)nc1)[C@H]1C[C@H]2C[C@@H](c3ccnc4ccc(F)cc34)C[C@H]2C1` (stereo partly shown) [Compound 72], the IC50 was no more than 10 nM in assay [1] and no more than 5 nM in assay [2].

For `CC(C(=O)Nc1ccc(C#N)cn1)[C@H]1C[C@H]2C[C@@H](c3ccnc4ccc(F)cc34)C[C@H]2C1` (stereo partly shown) [Compound 73], the IC50 in assay [1] was no more than 10 nM; in assay [2] it was no more than 5 nM.

As for `C#Cc1ccc(NC(=O)C(C)[C@H]2C[C@H]3C[C@@H](c4ccnc5ccc(F)cc45)C[C@H]3C2)nc1` (stereo partly shown) [Compound 74], the half-maximal inhibitory concentration (IC50) was 10 to 50 nM in assay [1] and no more than 5 nM in assay [2].

As for `CC(C(=O)Nc1ccc(C#CC2CC2)cn1)[C@H]1C[C@H]2CC(c3ccnc4ccc(F)cc34)C[C@H]2C1` (stereo partly shown) [Compound 79], the IC50 was 10 to 50 nM in assay [1] and greater than 100 nM in assay [2].

The values are drawn from patent US11266640B2, “Polycyclic compound acting as IDO inhibitor and/or IDO-HDAC dual inhibitor” (Hangzhou Innogate Pharma Co., Ltd., priority 2017, dated 2022).
